Experiment [1] deals with SK-N-AS cells (MDR− Neuroblastoma). In words: MTS proliferation assay using SK-N-AS cells. Type of experiment: cell-based. Particulars: Homo sapiens, read-out: IC50 in SK-N-AS. As for the experimental part:
SK-N-AS cells were plated in appropriate growth medium at 5×10^3 per well in 100 μL in 96 well tissue culture plates, Falcon, one plate for each drug to be tested. Column 1 was blank; it contained medium, but no cells. The plates were incubated overnight at 37° C. in 5% CO2 to allow attachment.
Drug diluted in culture media was added to the cells at a concentration of 0.005 nM to 10 μM, in quadruplicate. After 48-72 hours of drug exposure, the MTS agent was added to all wells and incubated 1-6 hrs (37° C., 5% CO2), depending on cell type, as per CellTiter 96® AQueous Non-Radioactive Cell Proliferation Assay (MTS), Promega. Plates were processed using a Bio-Tek Synergy HT Multi-detection microtiter plate reader at 490 nanometer wavelength and data were processed with KC4V.3 software. Data plots of drug concentration vs. absorbance were plotted and the concentration resulting in 50% inhibition (IC50) was extrapolated for each of the tested compounds.
As summarized in Table 1, the IC50 value for each tested compound in the SK-N-AS cell line was determined. The clinical comparator drug, paclitaxel, was included in the experiment to allow comparison of the results of the candidate compounds to a clinically relevant standard in the taxane class.
(In general: Formazan colour is commonly taken as a measure of viable cells.)

In experiment [2] the test system is MES-SA/Dx5 doxorubicin-resistant subline (MDR+). In words: cells. It is filed as cell-based, human. Conditions: for Degree of resistance (MESSA/Dx5): IC50 of the resistant line divided by IC50 of sensitive MES-SA cells. The text has this:
(§1) A second evaluation of the cytotoxicity of the acid labile, lipophilic molecular conjugates was undertaken.
(§2) These lines included a uterine sarcoma line, MES-SA, and its doxorubicin-resistant subline, MES-SA/Dx5. See W. G. Harker, F. R MacKintosh, and B. I. Sikic. Development and characterization of a human sarcoma cell line, MES-SA, sensitive to multiple drugs. Cancer Research 43: 4943-4950 (1983); W. G. Harker and B. I. Sikic. Multidrug (pleiotropic) resistance in doxorubicin-selected variants of the human sarcoma cell line MES-SA. Cancer Research 45: 4091 4096 (1985).
(§3) MES-SA/Dx5 cells express high levels of ABCB1 (MDR1) mRNA and its gene product, the P-glycoprotein. MES-SA and MES-SA/Dx5 were purchased from the American Type Culture Collection (ATCC, Manassas, Va.).

The next experiment deals with CEM/VM-1-5 cells (MDR+). The experiment can be described thus: cells. Type of experiment: cell-based, human. Particulars: for Degree of resistance (CEM/VM-1-5): IC50 of the resistant line divided by IC50 of sensitive CEM cells. The text has this:
A second evaluation of the cytotoxicity of the acid labile, lipophilic molecular conjugates was undertaken. […]
(§4) The second set of cells tested, CCRF-CEM or simply CEM, were derived from the blood of a patient with acute lymphoblastic leukemia. G. E. Foley, H. Lazarus, S. Farber, B. G. Uzman, B. A. Boone, and R E. McCarthy. Continuous culture of human lymphoblasts from peripheral blood of a child with acute leukemia. Cancer 18: 522-529 (1965). The subline CEM/VLB100 was developed to be resistant to up to vinblastine at 100 ng/ml. W. T. Beck, T. J. Mueller, and L. R. Tanzer. Altered surface membrane glycoproteins in Vinca alkaloid-resistant human leukemic lymphoblasts. Cancer Research 39: 2070-2076 (1979). Drug resistance is achieved by overexpression of the MDR1 gene. Resistance in the CEM subline designated CEM/VM-1-5, however, is “atypical.” M. K. Danks, J. C. Yalowich, and W. T. Beck. Atypical multiple drug resistance in a human leukemic cell line selected for resistance to teniposide (VM-26). Cancer Research 47: 1297-1301 (1987). The classes of drugs included in the “classic” multiple drug resistance phenotype are Vinca alkaloids, anthracyclines, epipodophyllotoxins and antibiotics. However, CEM/VM-1-5 cells retain sensitivity to the Vinca alkaloids despite resistance and cross-resistance to etoposide, anthracyclines and mitoxantrone. Danks, M. K.; Schmidt, C. A.; Cirtain, M. C.; Suttle, D. P.; Beck, W. T., Altered catalytic activity of and DNA cleavage by DNA topoisomerase II from human leukemic cells selected for resistance to VM-26. Biochemistry 1988, 27, 8861-8869. Resistance in CEM/VM-1-5 cells is effected by over expression of the […]. CEM, CEM/VLB100 and CEM/VM-1-5 cells were obtained from Dr. WT Beck, University of Illinois at Chicago.

Experiment [3] concerns MES-SA uterine sarcoma line. The experiment can be described thus: MTT-based cytotoxicity assay, MES-SA. It is filed as cell-based, human. Particulars: read-out: IC50 MESSA (Hs).
Text: as §1, §2, §3

Another experiment has as its system CEM/VLB100 cells (MDR+). The experiment can be described thus: cells. Type of experiment: cell-based, human. Particulars: for Degree of resistance (CEM/VLB100): IC50 of the resistant line divided by IC50 of sensitive CEM cells.
Text: as §1, §2, §4

The next experiment has as its system CCRF-CEM (CEM) cells. In words: MTT-based cytotoxicity assay, CEM. Type of experiment: cell-based, human.
Text: as §1, §2, §4

[4] abbreviates: SK-N-AS (MDR− Neuroblastoma), MTS, 48-72 hours drug exposure.
Setting [5] is: Homo sapiens, read-out: IC50 CEM/VM-1-5 (MDR + HTL), CEM/VM-1-5, MTT.

Like-named read-outs stand apart in the source and are kept apart here.

Turning to `CCCCCCCCCCCCCCCCCCOC(CBr)O[C@@H]1C(=O)C=C(C)[C@@H]2C[C@H]3OC(=O)C(OC(=O)CC(O)(C(C)C)C(C)C)C4[C@@H](C)[C@@H](O)[C@]5(O)OC[C@@]43C5[C@@]12C` (stereo partly drawn) [ART 472], the IC50 in experiment [1] (setting [4]) turned out to be 1.19 ± 0.5 nM.
On to `CC(=O)O[C@H]1C(=O)[C@@]2(C)[C@H]([C@H](OC(=O)c3ccccc3)[C@]3(O)C[C@H](OC(=O)[C@H](O)[C@@H](NC(=O)c4ccccc4)c4ccccc4)C(C)=C1C3(C)C)[C@]1(OC(C)=O)CO[C@@H]1C[C@@H]2O` [Paclitaxel, paclitaxel, reference compound], for which the “Degree of resistance (MESSA/Dx5)” value in experiment [2] came to 3105 ± 2416. Further, the IC50 in experiment [1] (SK-N-AS) was 0.05 ± 0.01 nM; in the experiment with CEM/VM-1-5 cells (MDR+) (setting [5]), < 11 nM; in experiment [3] (Homo sapiens, MES-SA), 9 ± 7 nM. For the same molecule, in the experiment with CEM/VM-1-5 cells (MDR+), the “Degree of resistance (CEM/VM-1-5)” value is given as 4.
For `CCOC(CBr)O[C@@H]1C(=O)C=C(C)[C@@H]2C[C@H]3OC(=O)C(OC(=O)CC(O)(C(C)C)C(C)C)C4[C@@H](C)[C@@H](O)[C@]5(O)OC[C@@]43C5[C@@]12C` (stereo partly drawn) [ART 470], in experiment [1] (setting [4]), the IC50 was determined as 349 ± 15 nM.
Take `C=CCCCCOC(=O)O[C@@H]1C(=O)C=C(C)[C@@H]2C[C@H]3OC(=O)C(OC(=O)CC(O)(C(C)C)C(C)C)C4[C@@H](C)[C@@H](O)[C@]5(O)OC[C@@]43C5[C@@]12C` (stereo partly drawn) [ART 448]: the IC50 in experiment [1] (setting [4]) is 5 ± 0.7 nM.
Consider doxorubicin [reference compound], for which the IC50 with CEM/VLB100 cells (MDR+) (CEM/VLB100, MTT, read-out: IC50 CEM/VLB100 (MDR + HTL)) turned out to be 2100 nM; in experiment [2] (MES-SA/Dx5, MTT, read-out: IC50 MESSA/Dx5 (MDR + Hs)) it was 97 nM; in the experiment on CCRF-CEM (CEM) cells (CEM human T-lymphoblastoid, MTT, read-out: IC50 CEM (HTL)) it was 14 nM; with CEM/VM-1-5 cells (MDR+) (CEM/VM-1-5, MTT, read-out: IC50 CEM/VM-1-5 (MDR + HTL)), 3060 nM; in experiment [3] (MES-SA human sarcoma, MTT), 2 nM. Also, the “Degree of resistance (CEM/VLB100)” value with CEM/VLB100 cells (MDR+) amounted to 150. In addition, the “Degree of resistance (MESSA/Dx5)” value in experiment [2] is 49. Also, in the experiment on CEM/VM-1-5 cells (MDR+), the “Degree of resistance (CEM/VM-1-5)” value amounted to 219.
Consider `CCCCCCCCCCC1(C)OCC(COC(=O)O[C@@H]2C(=O)C=C(C)[C@@H]3C[C@H]4OC(=O)[C@H](OC(=O)CC(O)(C(C)C)C(C)C)[C@H]5[C@@H](C)[C@@H](O)[C@]6(O)OC[C@@]54[C@H]6[C@@]23C)O1` (stereo partly drawn) [ART 332], for which the IC50 in experiment [1] (setting [4]) came out at 1.1 ± 0.5 nM.
Still for that read-out and setting: the value for `CC1=CC(=O)[C@@H](OC(CBr)OC(C)(C)C)[C@]2(C)C3[C@]45CO[C@@]3(O)[C@H](O)[C@H](C)C4C(OC(=O)CC(O)(C(C)C)C(C)C)C(=O)O[C@@H]5C[C@@H]12` (stereo partly drawn) [ART 471] was 262 ± 12 nM.
Same read-out and setting: as for `CC/C=C\C/C=C\C/C=C\C/C=C\C/C=C\C/C=C\CCCOC(=O)O[C@@H]1C(=O)C=C(C)[C@@H]2C[C@H]3OC(=O)C(OC(=O)CC(O)(C(C)C)C(C)C)C4[C@@H](C)[C@@H](O)[C@]5(O)OC[C@@]43C5[C@@]12C` (stereo partly drawn) [ART 449], the figure is 4 ± 0.5 nM; as for `CC1=CC(=O)[C@@H](OC(CBr)OC2CCCCC2)[C@]2(C)C3[C@]45CO[C@@]3(O)[C@H](O)[C@H](C)C4C(OC(=O)CC(O)(C(C)C)C(C)C)C(=O)O[C@@H]5C[C@@H]12` (stereo partly drawn) [ART 473], 12.6 ± 0.9 nM.
In the case of `CC[C@]1(O)C[C@@H]2CN(CCc3c([nH]c4ccccc34)[C@@](C(=O)OC)(c3cc4c(cc3OC)N(C)[C@H]3[C@@](O)(C(=O)OC)[C@H](OC(C)=O)[C@]5(CC)C=CCN6CC[C@]43[C@@H]65)C2)C1` [Vinblastine, vinblastine, reference compound], the “Degree of resistance (CEM/VLB100)” value with CEM/VLB100 cells (MDR+) was found to be 255 ± 127. For the same molecule, the IC50 in experiment [2] (Homo sapiens, MES-SA/Dx5, read-out: IC50 MESSA/Dx5 (MDR + Hs)) stood at 43 ± 12 nM; with CCRF-CEM (CEM) cells (Homo sapiens, CCRF-CEM, read-out: IC50 CEM (HTL), CEM human T-lymphoblastoid, MTT), 1 ± 0.8 nM; in the experiment with CEM/VM-1-5 cells (MDR+) (setting [5]) it was 1.3 ± 0.9 nM; in experiment [3] (Homo sapiens, MES-SA), 1.1 ± 0.3 nM. Moreover, the “Degree of resistance (MESSA/Dx5)” value in experiment [2] is recorded as 38.5 ± 0.7. Besides, in the experiment with CEM/VM-1-5 cells (MDR+), the “Degree of resistance (CEM/VM-1-5)” value came to 1.2 ± 0.07.

The values are drawn from patent publication US10172957B2, “Acid-labile lipophilic prodrugs of cancer chemotherapeutic agents” (priority 2011, dated 2019).
